Experimental data reported in patent publication EP4741374A1, “TREPROSTINIL DERIVATIVE, AND PREPARATION METHOD THEREFOR AND USE THEREOF” (CF PharmTech HongKong Limited, priority 2023, dated 2025).

What was measured:
SD rats = test: U46619-induced rat acute pulmonary arterial pressure rise model, airway nebulized administration (RVSP); format: in vivo
From the text: U46619 was a stable analogue of thromboxane A2 (TXA2), which activated the downstream IP3 signal by binding to the thromboxane A2 receptor to promote vasoconstriction, platelet aggregation and the like. Influences of compound C16-TR and equimolar compounds Ia-1, Ia-2, Ia-3, R-11 and R-12 at different time points after airway nebulized administration on pulmonary hypertension of rats were studied by using the U46619-induced rat pulmonary arterial pressure rise mode, which were compared with that of equimolar TRE after airway nebulized administration.
Preparation of test sample: a required amount of compound TRE was taken and added into a sterile EP tube, and each tube was added with an appropriate amount of DMSO for dissolution to prepare a stock solution (100 mg/mL). Compounds C16-TR, la-1, la-2, Ia-3, R-11 and R-12 were added with appropriate amounts of DMSO and dissolved in the original bottles to prepare stock solutions (100 mg/mL), and then the stock solutions were transferred to sterile EP tubes. Each above stock solution was hermetically stored in the dark in a refrigerator at 4°C. When the stock solution was tested, an appropriate amount of stock solution was taken and added into a new sterile EP tube, and diluted with DMSO and 1×PBS to a target concentration (working solution) wherein the solvent was 3% DMSO/1×PBS.
Preparation of modeling agent: 900 µL of methyl acetate was added into an original bottle of U46619 and mixed evenly to prepare 1 mg/mL(1 µg/µL) stock solution, which was divided into 10 µL (1 µg/µL) per sterile EP tube and stored in a refrigerator at -20°C. On the day of modeling, the stock solution was taken out and balanced at room temperature and constant temperature, and each tube was added with an appropriate amount of 0.9% sodium chloride solution (sterile) to be diluted 20-fold, so as to prepare a working solution with a concentration of 50 ng/µL.
Airway nebulized administration dosages of compound TRE and the test compounds were equimolar quantities calculated based on TRE. The dosage of compound TRE group (n=3) was 13.3 µg/kg, the dosage of compound C16-TR group (n=5) was 20.9 µg/kg, the dosage of compound Ia-1 group (n=3) was 21.2 µg/kg, the dosage of compound Ia-2 group (n=6) was 22.1 µg/kg, the dosage of compound Ia-3 group (n=6) was 23.1 µg/kg, the dosage of compound R-11 group (n=3) was 21.9 µg/kg, and the dosage of compound R-12 group (n=3) was 21.7 µg/kg. There were also a model control group (n=1) and a solvent control group (n=3).
The SD rats were injected with U46619 (25 µg /kg) through the left jugular vein at different time points after airway nebulized administration, the peak value of RVSP rise after injection with U46619 was observed and recorded, and the inhibition percentage on the RVSP rise was calculated by comparing with the basic RVSP value. The rats in the model control group were administered with U46619 by intravenous injection immediately after successful catheterization and measurement of the basic RVSP. RVSP of all animals were detected by right cardiac catheterization, and respiratory conditions of the animals were observed generally. Table-2 Time points of administrating U46619 in various groups

EP2 receptor = target: T1, EP2 receptor (Homo sapiens, UniProt P43116); test: Competitive binding to EP2 receptor against radiolabeled ligand 3H-PGE2; conditions: 8 concentrations from 10 µM, 10-fold dilutions
T1 construct: purchased Merck HTS185M
T1 sequence (P43116 whole entry): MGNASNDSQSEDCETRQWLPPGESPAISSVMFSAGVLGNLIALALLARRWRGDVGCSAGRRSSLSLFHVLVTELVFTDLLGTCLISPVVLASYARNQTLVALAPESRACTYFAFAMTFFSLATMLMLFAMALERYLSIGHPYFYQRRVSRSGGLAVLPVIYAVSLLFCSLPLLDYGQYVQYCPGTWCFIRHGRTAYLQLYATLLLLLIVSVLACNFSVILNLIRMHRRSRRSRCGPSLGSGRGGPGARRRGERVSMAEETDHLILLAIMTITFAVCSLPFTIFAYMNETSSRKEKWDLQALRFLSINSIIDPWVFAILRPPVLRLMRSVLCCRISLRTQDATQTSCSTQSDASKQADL
Procedure: This experiment was carried out in 96-well plates to evaluate the binding affinity of the compounds of the present invention (Ia-1, Ia-2 and Ia-3) to the prostaglandin EP2 receptor by testing their ability of competitive binding to the EP2 receptor with the radiolabeled ligand ^3H-PGE2. Treprostinil was used as control. MicroBeta2 was used to detect the number of ^3H captured, and Prism software was used to analyze data. The EP2 film (Merck, Cat# HT[…], batch number 2121326) was diluted with a buffer (50 mM Hepes, PH=7.4, 5 mM MgCl2, 1 mM CaCl2, 0.5% BSA) to a final concentration of 75 μg/mL. ^3H-PGE2 was diluted to 15 nM. Test compound and control compound solutions with an initial concentration of 10 μM were prepared, and subjected to 10-fold continuous gradient dilution, with a total of 8 concentrations for testing. 5%DMSO was used as a solvent control group. 1 μL of each compound solution was added into a corresponding position in the 96-well test plate, and each well was added with 50 μL of the EP2 film (about 3.75 μg/well), and added with 50 μ L of ^3H-PGE2. Then, the well plate was sealed, and incubated with shaking at 300 rpm at room temperature for 2 hours. After finishing the incubation, GF/C plates were filtered with Perkin Elmer Filtermate Harvester, and then each plate was washed with cold eluent for 4 times, and dried at 50°C for 1 hour. After drying, bottoms of wells of the filter plate were sealed with a PerkinElmer Unifilter-96 backing tape. 50 μL of Perkin Elmer Microscint O was added. The top of the filter plate was sealed with Perkin Elmer TopSeal-A sealing film. The number of ^3H captured was detected by MicroBeta2.

binding to the EP2 receptor (competition with 3H-PGE2) (EP2 receptor): no detectable binding
Compound: CCCCC[C@H](O)CC[C@@H]1[C@H]2Cc3cccc(OCC(=O)OCCCCCCCCOCCCCc4ccccc4)c3C[C@H]2C[C@H]1O [Compound Ia-2]
antihypertensive effect and duration, overall (SD rats; 1 to 48 hours after airway nebulized administration, equimolar doses): stronger antihypertensive effects than C16-TR and longer durations
antihypertensive effect (SD rats; 24 hours after airway nebulized administration, equimolar to 13.3 µg/kg TRE): obvious antihypertensive effects
antihypertensive effect (SD rats; 48 hours after airway nebulized administration): absence of an antihypertensive effect
